Read-outs that look alike come from different tables or passages of the source.
Tests used:
[1] = tested on: A. baumannii 14B0091 (Acinetobacter sp., BCRC number 14B0091)
Outline: (§1)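 Broth microdilution per CLSI in Müller-Hinton broth and modified LYM broth (pH 7.4; variants with 300–50 mM NaCl, 2.5–0.5 mM MgCl2, or pH 6.5–4.5). Inoculum 5 × 10^5 CFU/mL; peptides at final 50 to 0.78 µg/mL, twofold series. MIC reported; three independent repeats.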

[2] = tested on: Escherichia coli (ATCC 25922)
Outline: as §1

[3] = tested on: Pseudomonas aeruginosa Migula (ATCC 27853)
Outline: as §1

[4] = tested on: S. aureus ATCC 6538
Outline: as §1

[5] = tested on: A. baumannii 14B0097 (Acinetobacter sp., BCRC number 14B0097)
Outline: as §1

[6] = tested on: S. aureus ATCC 25923
Outline: as §1

[7] = tested on: S. aureus ATCC 33591
Outline: as §1

[8] = LYM broth, 0 mM NaCl, 16 h, 37 °C
[9] = LYM broth, 50 mM NaCl, 16 h, 37 °C
[10] = LYM broth, 100 mM NaCl, 16 h, 37 °C
[11] = LYM broth, 200 mM (NaCl), 16 h, 37 °C
[12] = LYM broth, 300 mM (NaCl), 16 h, 37 °C
[13] = MH broth, 5 × 10^5 CFU/mL, 16 h, 37 °C, repeated three times

For Ac-AKKKKWRKWLKWL-NH2 [Peptide W5K10], the MIC [1, 8] was 1.56 µg/mL, the MIC ([1]; LYM broth, 0.5 mM MgCl2) was 1.56 µg/mL and the MIC ([1]; LYM broth, 1.5 mM MgCl2) was 1.56 µg/mL. It also gave an MIC ([1]; LYM broth, 2.5 mM MgCl2) of 3.13 µg/mL, an MIC [1, 9] of 1.56 µg/mL and an MIC [1, 10] of 1.56 µg/mL. It also gave an MIC [1, 11] of 1.56 µg/mL, an MIC [1, 12] of 3.13 µg/mL and an MIC ([1]; LYM broth, pH 4.5) of 3.13 µg/mL. For the same substance, the MIC ([1]; LYM broth, pH 5.5) was 1.56 µg/mL, the MIC ([1]; LYM broth, pH 6.5) was 1.56 µg/mL and the MIC [1, 13] was 1.56 µg/mL. For the same substance, the MIC [2, 8] was 3.13 µg/mL, the MIC ([2]; LYM broth, 0.5 mM MgCl2) was 3.13 µg/mL and the MIC ([2]; LYM broth, 1.5 mM MgCl2) was 6.25 µg/mL. It also gave an MIC ([2]; LYM broth, 2.5 mM MgCl2) of 6.25 µg/mL, an MIC [2, 9] of 3.13 µg/mL and an MIC [2, 10] of 12.5 µg/mL. The MIC [2, 11] was 12.5 µg/mL, the MIC [2, 12] was 25 µg/mL and the MIC ([2]; LYM broth, pH 4.5) was 3.13 µg/mL. The MIC ([2]; LYM broth, pH 5.5) was 1.56 µg/mL, the MIC ([2]; LYM broth, pH 6.5) was 1.56 µg/mL and the MIC [2, 13] was 6.25 µg/mL. The MIC [3, 8] was 3.13 µg/mL, the MIC ([3]; LYM broth, 0.5 mM MgCl2) was 3.13 µg/mL and the MIC ([3]; LYM broth, 1.5 mM MgCl2) was 3.13 µg/mL. It also gave an MIC ([3]; LYM broth, 2.5 mM MgCl2) of 6.25 µg/mL, an MIC [3, 9] of 6.25 µg/mL and an MIC [3, 10] of 6.25 µg/mL. For the same substance, the MIC [3, 11] was 12.5 µg/mL, the MIC [3, 12] was 25 µg/mL and the MIC ([3]; LYM broth, pH 4.5) was 3.13 µg/mL. The MIC ([3]; LYM broth, pH 5.5) was 3.13 µg/mL, the MIC ([3]; LYM broth, pH 6.5) was 1.56 µg/mL and the MIC [3, 13] was 6.25 µg/mL. For the same substance, the MIC [4, 8] was 1.56 µg/mL, the MIC ([4]; LYM broth, 0.5 mM MgCl2) was 1.56 µg/mL and the MIC ([4]; LYM broth, 1.5 mM MgCl2) was 1.56 µg/mL. For the same substance, the MIC ([4]; LYM broth, 2.5 mM MgCl2) was 1.56 µg/mL, the MIC [4, 9] was 1.56 µg/mL and the MIC [4, 10] was 3.13 µg/mL. It also gave an MIC [4, 11] of 6.25 µg/mL, an MIC [4, 12] of 12.5 µg/mL and an MIC ([4]; LYM broth, pH 4.5) of 6.25 µg/mL. It also gave an MIC ([4]; LYM broth, pH 5.5) of 3.13 µg/mL, an MIC ([4]; LYM broth, pH 6.5) of 1.56 µg/mL and an MIC [4, 13] of 6.25 µg/mL. For the same substance, the MIC [5, 8] was 1.56 µg/mL, the MIC ([5]; LYM broth, 0.5 mM MgCl2) was 1.56 µg/mL and the MIC ([5]; LYM broth, 1.5 mM MgCl2) was 1.56 µg/mL. It also gave an MIC ([5]; LYM broth, 2.5 mM MgCl2) of 3.13 µg/mL, an MIC [5, 9] of 1.56 µg/mL and an MIC [5, 10] of 1.56 µg/mL. The MIC [5, 11] was 1.56 µg/mL, the MIC [5, 12] was 6.25 µg/mL and the MIC ([5]; LYM broth, pH 4.5) was 3.13 µg/mL. It also gave an MIC ([5]; LYM broth, pH 5.5) of 1.56 µg/mL, an MIC ([5]; LYM broth, pH 6.5) of 1.56 µg/mL and an MIC [5, 13] of 1.56 µg/mL. The MIC [6, 8] was 3.13 µg/mL, the MIC ([6]; LYM broth, 0.5 mM MgCl2) was 1.56 µg/mL and the MIC ([6]; LYM broth, 1.5 mM MgCl2) was 3.13 µg/mL. The MIC ([6]; LYM broth, 2.5 mM MgCl2) was 3.13 µg/mL, the MIC [6, 9] was 3.13 µg/mL and the MIC [6, 10] was 6.25 µg/mL. The MIC [6, 11] was 12.5 µg/mL, the MIC [6, 12] was 25 µg/mL and the MIC ([6]; LYM broth, pH 4.5) was 3.13 µg/mL. For the same substance, the MIC ([6]; LYM broth, pH 5.5) was 3.13 µg/mL, the MIC ([6]; LYM broth, pH 6.5) was 3.13 µg/mL and the MIC [6, 13] was 6.25 µg/mL. For the same substance, the MIC [7, 8] was 3.13 µg/mL, the MIC ([7]; LYM broth, 0.5 mM MgCl2) was 3.13 µg/mL and the MIC ([7]; LYM broth, 1.5 mM MgCl2) was 3.13 µg/mL. For the same substance, the MIC ([7]; LYM broth, 2.5 mM MgCl2) was 6.25 µg/mL, the MIC [7, 9] was 6.25 µg/mL and the MIC [7, 10] was 6.25 µg/mL. For the same substance, the MIC [7, 11] was 12.5 µg/mL, the MIC [7, 12] was 25 µg/mL and the MIC ([7]; LYM broth, pH 4.5) was 6.25 µg/mL. It also gave an MIC ([7]; LYM broth, pH 5.5) of 3.13 µg/mL, an MIC ([7]; LYM broth, pH 6.5) of 3.13 µg/mL and an MIC [7, 13] of 12.5 µg/mL.

Ac-KKKKWRKWLKWLA-NH2 [Peptide W5K11] showed an MIC [1, 8] of 1.56 µg/mL, an MIC ([1]; LYM broth, 0.5 mM MgCl2) of 1.56 µg/mL and an MIC ([1]; LYM broth, 1.5 mM MgCl2) of 1.56 µg/mL. For the same substance, the MIC ([1]; LYM broth, 2.5 mM MgCl2) was 1.56 µg/mL, the MIC [1, 9] was 1.56 µg/mL and the MIC [1, 10] was 1.56 µg/mL. For the same substance, the MIC [1, 11] was 1.56 µg/mL, the MIC [1, 12] was 1.56 µg/mL and the MIC ([1]; LYM broth, pH 4.5) was 1.56 µg/mL. It also gave an MIC ([1]; LYM broth, pH 5.5) of 1.56 µg/mL, an MIC ([1]; LYM broth, pH 6.5) of 1.56 µg/mL and an MIC [1, 13] of 0.78 µg/mL. For the same substance, the MIC [2, 8] was 1.56 µg/mL, the MIC ([2]; LYM broth, 0.5 mM MgCl2) was 3.13 µg/mL and the MIC ([2]; LYM broth, 1.5 mM MgCl2) was 3.13 µg/mL. It also gave an MIC ([2]; LYM broth, 2.5 mM MgCl2) of 3.13 µg/mL, an MIC [2, 9] of 1.56 µg/mL and an MIC [2, 10] of 3.13 µg/mL. The MIC [2, 11] was 3.13 µg/mL, the MIC [2, 12] was 6.25 µg/mL and the MIC ([2]; LYM broth, pH 4.5) was 1.56 µg/mL. The MIC ([2]; LYM broth, pH 5.5) was 1.56 µg/mL, the MIC ([2]; LYM broth, pH 6.5) was 1.56 µg/mL and the MIC [2, 13] was 6.25 µg/mL. For the same substance, the MIC [3, 8] was 1.56 µg/mL, the MIC ([3]; LYM broth, 0.5 mM MgCl2) was 1.56 µg/mL and the MIC ([3]; LYM broth, 1.5 mM MgCl2) was 1.56 µg/mL. It also gave an MIC ([3]; LYM broth, 2.5 mM MgCl2) of 3.13 µg/mL, an MIC [3, 9] of 1.56 µg/mL and an MIC [3, 10] of 1.56 µg/mL. For the same substance, the MIC [3, 11] was 3.13 µg/mL, the MIC [3, 12] was 6.25 µg/mL and the MIC ([3]; LYM broth, pH 4.5) was 1.56 µg/mL. The MIC ([3]; LYM broth, pH 5.5) was 1.56 µg/mL, the MIC ([3]; LYM broth, pH 6.5) was 1.56 µg/mL and the MIC [3, 13] was 3.13 µg/mL. It also gave an MIC [4, 8] of 1.56 µg/mL, an MIC ([4]; LYM broth, 0.5 mM MgCl2) of 1.56 µg/mL and an MIC ([4]; LYM broth, 1.5 mM MgCl2) of 1.56 µg/mL. For the same substance, the MIC ([4]; LYM broth, 2.5 mM MgCl2) was 1.56 µg/mL, the MIC [4, 9] was 1.56 µg/mL and the MIC [4, 10] was 3.13 µg/mL. The MIC [4, 11] was 3.13 µg/mL, the MIC [4, 12] was 6.25 µg/mL and the MIC ([4]; LYM broth, pH 4.5) was 3.13 µg/mL. The MIC ([4]; LYM broth, pH 5.5) was 1.56 µg/mL, the MIC ([4]; LYM broth, pH 6.5) was 1.56 µg/mL and the MIC [4, 13] was 3.13 µg/mL. For the same substance, the MIC [5, 8] was 1.56 µg/mL, the MIC ([5]; LYM broth, 0.5 mM MgCl2) was 1.56 µg/mL and the MIC ([5]; LYM broth, 1.5 mM MgCl2) was 1.56 µg/mL. It also gave an MIC ([5]; LYM broth, 2.5 mM MgCl2) of 1.56 µg/mL, an MIC [5, 9] of 1.56 µg/mL and an MIC [5, 10] of 1.56 µg/mL. It also gave an MIC [5, 11] of 1.56 µg/mL, an MIC [5, 12] of 1.56 µg/mL and an MIC ([5]; LYM broth, pH 4.5) of 1.56 µg/mL. For the same substance, the MIC ([5]; LYM broth, pH 5.5) was 1.56 µg/mL, the MIC ([5]; LYM broth, pH 6.5) was 1.56 µg/mL and the MIC [5, 13] was 1.56 µg/mL. The MIC [6, 8] was 1.56 µg/mL, the MIC ([6]; LYM broth, 0.5 mM MgCl2) was 1.56 µg/mL and the MIC ([6]; LYM broth, 1.5 mM MgCl2) was 1.56 µg/mL. For the same substance, the MIC ([6]; LYM broth, 2.5 mM MgCl2) was 1.56 µg/mL, the MIC [6, 9] was 1.56 µg/mL and the MIC [6, 10] was 3.13 µg/mL. It also gave an MIC [6, 11] of 3.13 µg/mL, an MIC [6, 12] of 6.25 µg/mL and an MIC ([6]; LYM broth, pH 4.5) of 3.13 µg/mL. The MIC ([6]; LYM broth, pH 5.5) was 1.56 µg/mL, the MIC ([6]; LYM broth, pH 6.5) was 1.56 µg/mL and the MIC [6, 13] was 3.13 µg/mL. It also gave an MIC [7, 8] of 3.13 µg/mL, an MIC ([7]; LYM broth, 0.5 mM MgCl2) of 3.13 µg/mL and an MIC ([7]; LYM broth, 1.5 mM MgCl2) of 3.13 µg/mL. The MIC ([7]; LYM broth, 2.5 mM MgCl2) was 3.13 µg/mL, the MIC [7, 9] was 3.13 µg/mL and the MIC [7, 10] was 3.13 µg/mL. The MIC [7, 11] was 6.25 µg/mL, the MIC [7, 12] was 6.25 µg/mL and the MIC ([7]; LYM broth, pH 4.5) was 3.13 µg/mL. The MIC ([7]; LYM broth, pH 5.5) was 3.13 µg/mL, the MIC ([7]; LYM broth, pH 6.5) was 3.13 µg/mL and the MIC [7, 13] was 12.5 µg/mL.

— publication PMC12649549, “Sequence Permutation Generated Lysine and Tryptophan-Rich Antimicrobial Peptides with Enhanced Therapeutic Index” (Antibiotics, 2025)
